Laboratory results taken from ChEMBL document CHEMBL1201862, “PubChem BioAssay data set” (2004).
Active and inactive are the calls of the source.

Assays:
Large T antigen = Large T antigen (Simian virus 40, UniProt P03070); format: functional, Betapolyomavirus macacae;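 note: Confirmatory-stage PubChem screen for compounds that inhibit SV40 T antigen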
[1] = viability of HCT116 lacking mutant beta-catenin – cell-based, human colon tumor, dose response (AID 1045); format: functional;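 note: HCT116 colon tumor cells with beta catenin knocked out; cells exposed to compound for 60 hours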
[2] = Luminescence Cell-Based Dose Retest to Confirm Inhibitors of Cancer Stem Cells. [Related pubchem assays (depositor defined):AID2717, AID2721]; format: functional; settings: Homo sapiens
[3] = reduction of Shn3 3'UTR-driven luciferase in osteoblasts – cell-based, Clone20 osteoblasts, firefly luciferase, cherry-picked, dose response (AID 624132); format: functional;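 note: firefly luciferase luminescence from reporter carrying the Shn3 3'UTR in osteoblasts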
[4] = Luminescence Cell-Based Dose Response HTS to Identify Inhibitors of 5'UTR Stem-Loop Driven Prion Protein mRNA Translation in H4 Neuroglioblastoma Cells. [Related pubchem assays: 1827 (Project Summary), 1813 (Primary HTS)]; format: functional
[5] = viability of PTEN-deleted HCT116 cells – cell-based, HCT116 PTEN knockout, dose response (AID 1047); format: functional;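 note: HCT116 colon tumor cells with PTEN knocked out; cells exposed to compound for 60 hours before readout; potency for loss of cell viability measured by luminescence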
[6] = alpha-synuclein stem-loop luciferase translation blockers – H4 neuroglioma cells, luminescence, confirmation (AID 1988); format: functional, cell-based
[7] = luciferase reporter signal suppression in cells – H4 neuroglioma cells, luminescence, dose response (AID 1990); format: functional, cell-based
[8] = biological target: T1, Rac GTPase-activating protein 1 (Homo sapiens, UniProt Q9H0H5); assay: blockers of MgcRacGAP-driven Rac1 GTP hydrolysis – biochemical, ADP Hunter fluorescence, primary and confirmatory, confirmation (AID 624330); format: functional
T1 sequence (Q9H0H5 whole entry): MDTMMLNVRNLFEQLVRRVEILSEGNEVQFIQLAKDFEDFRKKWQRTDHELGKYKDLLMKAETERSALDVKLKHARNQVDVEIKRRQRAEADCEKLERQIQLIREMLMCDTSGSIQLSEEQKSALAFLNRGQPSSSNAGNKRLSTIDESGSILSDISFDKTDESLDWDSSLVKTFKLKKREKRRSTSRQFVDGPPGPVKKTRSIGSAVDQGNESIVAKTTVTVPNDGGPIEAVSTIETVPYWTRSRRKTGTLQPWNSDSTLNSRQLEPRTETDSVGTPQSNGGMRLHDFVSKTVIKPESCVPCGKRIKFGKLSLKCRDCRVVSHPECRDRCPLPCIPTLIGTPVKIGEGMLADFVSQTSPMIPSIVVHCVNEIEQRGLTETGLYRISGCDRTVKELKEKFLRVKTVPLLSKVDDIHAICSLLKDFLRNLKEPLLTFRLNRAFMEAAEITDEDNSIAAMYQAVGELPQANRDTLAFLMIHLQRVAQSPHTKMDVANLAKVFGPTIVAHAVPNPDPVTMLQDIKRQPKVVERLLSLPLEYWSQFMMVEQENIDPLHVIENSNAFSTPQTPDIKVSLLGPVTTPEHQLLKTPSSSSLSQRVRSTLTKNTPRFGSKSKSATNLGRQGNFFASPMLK

[9] = Luminescence Cell-Based Dose Confirmation HTS to Identify Activators of 5'UTR Stem-Loop Driven Alpha-Synuclein mRNA Translation in H4 Neuroglioblastoma Cells. [Related pubchem assays: 1829 (Project Summary), 1814 (Primary HTS)]; format: functional
H4 = assay: Luminescence Cell-Based Dose Response HTS to Identify Activators of 5'UTR Stem-Loop Driven Prion Protein mRNA Translation in H4 Neuroglioblastoma Cells. [Related pubchem assays: 1829 (Project Summary), 1814 (Primary HTS)]; format: functional; settings: Homo sapiens
[10] = Luminescence Cell-Based Dose Response HTS to Identify Activators of Luciferase Translation or Activity in H4 […] Cells. [Related pubchem assays: 1829 (Project Summary), 1814 (Primary HTS)]; format: functional
INS1 = assay: INS-1E survival protection against cytokine death – cell-based, luminescence, retest, dose response (AID 449756); format: functional; settings: Rattus norvegicus;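 note: cell death triggered by IL-1 beta plus TNF-alpha plus IFN-gamma mixture; protective hits raise ATP signal compared with cytokine alone wells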

Sequence of Large T antigen (P03070 whole entry): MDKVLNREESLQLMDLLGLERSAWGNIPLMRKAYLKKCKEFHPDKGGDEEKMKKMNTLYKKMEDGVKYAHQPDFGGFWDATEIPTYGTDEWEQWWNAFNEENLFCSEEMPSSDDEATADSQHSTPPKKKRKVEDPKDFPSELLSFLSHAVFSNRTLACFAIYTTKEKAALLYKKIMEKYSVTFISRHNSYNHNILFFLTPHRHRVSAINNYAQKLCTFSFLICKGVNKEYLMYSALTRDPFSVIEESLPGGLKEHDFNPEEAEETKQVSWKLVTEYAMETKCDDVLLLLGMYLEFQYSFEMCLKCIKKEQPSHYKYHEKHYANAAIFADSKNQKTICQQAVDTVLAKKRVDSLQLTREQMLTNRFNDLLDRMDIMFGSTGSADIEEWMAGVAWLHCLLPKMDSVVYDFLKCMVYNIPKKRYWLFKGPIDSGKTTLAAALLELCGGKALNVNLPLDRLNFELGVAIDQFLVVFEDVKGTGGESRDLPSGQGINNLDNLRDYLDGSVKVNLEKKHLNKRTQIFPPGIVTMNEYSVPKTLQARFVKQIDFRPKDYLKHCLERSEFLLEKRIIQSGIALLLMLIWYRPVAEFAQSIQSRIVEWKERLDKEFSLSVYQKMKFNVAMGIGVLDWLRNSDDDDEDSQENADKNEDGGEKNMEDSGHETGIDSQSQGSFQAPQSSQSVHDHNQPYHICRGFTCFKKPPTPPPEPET

Compound | IC50 (Large T antigen) | AC50 [2] | also measured
NNC(=O)C(=O)Nc1ccc(O)cc1 | 9.75 µM (active) |  | 
COc1cc(SC#N)ccc1/N=C/c1c(C)nn(-c2cccc3ccccc23)c1O | 14.1 µM (active) |  | EC50 [1]: 93.7 µM (active)
CN(CC(=O)Nc1ccc(Cl)c(Cl)c1)C(=O)C12CC3CC(CC(C3)C1)C2 |  | 5.44 µM (active) | 
CNS(=O)(=O)c1cccc(C(=O)OCc2cc(C(C)=O)ccc2OC)c1 |  |  | AC50 [3]: 11.2 µM (active)
COc1ccc(C2=Nn3c(nnc3-c3ccncc3)SC2)cc1OC |  |  | EC50 [4]: 14.2 µM (active); EC50 [5]: 19.7 µM (active); EC50 [6]: 50.8 µM (active); EC50 [7]: 12.4 µM (active); EC50 [1]: 336 µM (active)
O=C1C2C3C=CC(C4CC34)C2C(=O)N1/N=C/c1ccc(-c2ccc(F)cc2[N+](=O)[O-])o1 (centres undefined) |  | 1.08 µM (active) | 
O=C(CSCc1cccc(Br)c1)N/N=C/c1ccc2c(c1)OCO2 |  | 3 µM (active) | 
COc1cc(/C=N/NC(=O)C2=NNC(=O)C2C)ccc1O (centres undefined) | 26.7 µM (active) |  | IC50 [8]: 76.3 µM (active)
CCCc1ccc(-c2cc(NC(=O)CSc3n[nH]c(N)n3)n(-c3ccccc3)n2)cc1 |  | 4.18 µM (active) | EC50 [9]: 7.46 µM (active); EC50 (H4): 53.5 µM (active); EC50 [10]: 6.51 µM (active)
CCCCCCSc1cccc(-c2nc3ccccn3c2NCc2ccccc2)c1 |  | 6.43 µM (active) | AC50 (INS1): 7.57 µM (active)
Nc1ccccc1/N=C/c1ccc(-c2cccc(Cl)c2)o1 |  | 3.68 µM (active) | 
COc1cc(/C=C(\C#N)C(=O)N2CCCCC2)ccc1O | 13 µM (active) |  | 
Cc1cc(SCC(=O)N/N=C/c2ccc(O)c(O)c2)nc2ccccc12 | 6.59 µM (active) |  | 
Cc1ccc(CNc2ccc3c(c2)ncn3C(C)C)cc1 | 42.6 µM (active) |  | 
